The values below come from patent US5013841A, “Oxo quinoline derivatives” (Dainippon Pharmaceutical Co., Ltd., priority 1987, dated 1991).

The test system of one test is M. fermentans PG-18. Briefly: Antimycoplasma activity (twofold agar dilution method). The format is cell-based. The settings on record: Mycoplasmopsis fermentans, PG18, 48 h; M. fermentans PG-18; Chanock agar, 37° C., 2 days, anaerobic, calculated for free base; read-out: minimum inhibitory concentration (MIC). As for the experimental part: (§1) The figures in the table show minimum inhibitory concentrations (MIC), (μg/ml), calculated for free base.
(§2) Minimum inhibitory concentrations (MIC) were determined by the twofold agar dilution method. The media used were Chanock broth and agar PPLD broth and agar (Difco) supplemented with 20% horse serum and 10% fresh yeast extract). A 2-3 day broth culture of organisms was diluted with Chanock broth to a cell density of about 10^6 cells/ml. One loopful (about […]) of the organism dilution was spotted onto 10-ml drug containing Chanock agar in petri dishes using a multiple inoculator (Cathra International). The petri dishes were incubated at 37° C. for 7 and 2 days for Mycoplasma pneumoniae and other Mycoplasma spp. respectively. Incubation was performed anaerobically using the Gaspak anaerobic system (BBL) for M. buccale, M. fermentans, M. hominis, M. orale and M. salivarium, and aerobically for other Mycoplasma spp. The MIC was defined as the lowest compound concentration at which no growth of organism was detected.

In the next test the test system is M. buccale CH-20249. The description is as above. The note with it: 48 h, read-out: minimum inhibitory concentration (MIC). The format is cell-based. On the procedure: as §1, §2
A further test relates to A. laidlawii PG-8. The test is described as above. The note with it: Acholeplasma laidlawii, PG8, 48 h, read-out: minimum inhibitory concentration (MIC). The format is cell-based. On the procedure: as §1, §2
A further test relates to M. arginini G-230. The test is described as above. Type of test: cell-based. The settings on record: 48 h, read-out: minimum inhibitory concentration (MIC). As for the experimental part:
as §1, §2

For a further test, the system named is M. orale CH-19299. The description is as above. The format is cell-based. The note with it: 48 h, read-out: minimum inhibitory concentration (MIC). On the procedure:
as §1, §2

The next test concerns M. salivarium PG-20. The description is as above. The settings on record: 48 h, read-out: minimum inhibitory concentration (MIC). Type of test: cell-based. On the procedure:
as §1, §2

The next test relates to M. hyorhinis BST-7. The description is as above. Type of test: cell-based. The settings on record: Mesomycoplasma hyorhinis, BST7, 48 h, read-out: minimum inhibitory concentration (MIC). As for the experimental part:
as §1, §2

A further test relates to M. hominis PG-21. Described as above. Type of test: cell-based. The note with it: Metamycoplasma hominis, PG21, 48 h; M. hominis PG-21; Chanock agar, 37° C., 2 days, anaerobic, calculated for free base; read-out: minimum inhibitory concentration (MIC). As for the experimental part: as §1, §2
For a further test, the system named is S. epidermidis No. 8. Briefly: In vitro antibacterial activity (twofold agar-dilution method). The format is cell-based. The settings on record: Staphylococcus epidermidis, read-out: minimum inhibitory concentration (MIC). As for the experimental part:
(§3) The figures in the table show minimum inhibitory concentrations (MIC) (μg/ml), calculated for free base. The minimum inhibitory concentration was determined by the twofold agar-dilution method, which was recommended by Japan Society of Chemotherapy (Chemotherapy, 29(1), 76(1981)), using Muller-Hinton agar. One loopful of an overnight culture of test organisms in Mueller-Hinton broth was inoculated onto 10-ml drug-containing agar layers in petri dishes. Bacterial inocula contained approximately 10^6 colonyl-formingunits. Bacterial growth was observed after 20-hour incubation at 37° C. The MIC was defined as the lowest drug concentration which prevented visible bacterial growth.

In a further test the test system is S. aureus 209 JC-1. The test is described as above. Type of test: cell-based. The settings on record: Staphylococcus aureus, read-out: minimum inhibitory concentration (MIC). As for the experimental part:
as §3

For the next test, the system named is E. coli NIHJ JC-2. Described as above. The format is cell-based. The settings on record: Escherichia coli, NIHJJC2; E. coli NIHJ JC-2; agar dilution, 20 h, 37° C., calculated for free base; read-out: minimum inhibitory concentration (MIC). As for the experimental part: as §3
The next test deals with S. aureus Terajima. Described as above. The format is cell-based. The note with it: Staphylococcus aureus, 20 h, read-out: minimum inhibitory concentration (MIC). As for the experimental part:
as §3

The test system of a further test is P. Aeruginosa 12. The description is as above. Type of test: cell-based. The note with it: Pseudomonas aeruginosa, 20 h, read-out: minimum inhibitory concentration (MIC). On the procedure:
as §3

Test [1] relates to C. Trachomatics G/ur 1467. Put plainly: Antichlamydia activity (inclusion bodies in McCoy cells). The format is cell-based. The settings on record: 36° C., 40-48 h, calculated for free base, read-out: minimum inhibitory concentration (MIC). As for the experimental part:
(§4) Minimum inhibitory concentrations (MIC) were determined as follows. McCoy cells were freshly cultured in Eagle's minimum essential medium (EMEM) (Flow) supplemented with 4% fetal bovine serum and 0.03% L-glutamine. The cells were trypsinized and suspended in the same culture medium at a cell concentration of 1-2×10^5 cells/ml. One ml of the cell suspension was pipetted into flat-bottomed plastic tubes (14 mm in diameter) containing a cover slip (12 mm in diameter). The tubes were incubated in 5% CO2 -air at 36° C. for 20 hours. One-half ml of a chlamydial suspension (ca. 1-4×10^3 inclusion body forming units) was added into each tube, which was then centrifuged at 1500×g for 60 minutes. The tubes were incubated for 1 hour at 36° C. The medium was changed with 1 ml of EMEM supplemented with 8% fetal bovine serum, 0.03% L-blutamine, 1μg/ml cycloheximide and 0.5% glucose, and containing drugs at various concentrations. After further incubation at 36° C. for 40-48 hours, the cells on the cover glasses were stained with the Giemsa's solution. […] The MIC was defined as the lowest drug concentration where there were no inclusion bodies in all the cells on the cover slip.

A further test relates to C. Trachomatics G/ur 931. The test is described as above. Type of test: cell-based. The settings on record: 36° C., 40-48 h, calculated for free base, read-out: minimum inhibitory concentration (MIC). On the procedure: as §4
Test [2] relates to C. Trachomatics G/ur 1317. The test is described as above. The format is cell-based. The note with it: 36° C., 40-48 h, calculated for free base, read-out: minimum inhibitory concentration (MIC). On the procedure:
as §4

In test [3] the test system is C. Trachomatics G/ur 1483. Described as above. The settings on record: 36° C., 40-48 h, calculated for free base, read-out: minimum inhibitory concentration (MIC). The format is cell-based. On the procedure:
as §4

In a further test the test system is M. pneumoniae Mac. Briefly: Antimycoplasma activity (twofold agar dilution method). The note with it: Mycoplasmoides pneumoniae, 168 h; M. pneumoniae Mac; Chanock agar, 37° C., 7 days, aerobic, calculated for free base; read-out: minimum inhibitory concentration (MIC). Type of test: cell-based, Mycoplasma pneumoniae. As for the experimental part:
as §1, §2

Converted amounts (≈) assume the structure as drawn. Where two headings read alike, the source gives them in different places.

Turning to `Nc1c(F)c(N2CCNCC2)cc2c1c(=O)c(C(=O)O)cn2C1CC1` [Compound 1], the MIC is 0.1 µg/mL (≈ 0.289 µM) in the test with M. fermentans PG-18; 0.1 µg/mL (≈ 0.289 µM) with M. buccale CH-20249 (M. buccale CH-20249, Chanock agar, 37° C., 2 days, anaerobic, calculated for free base); 0.1 µg/mL (≈ 0.289 µM) in the test with A. laidlawii PG-8 (A. laidlawii PG-8, Chanock agar, 37° C., 2 days, aerobic, calculated for free base); 0.1 µg/mL (≈ 0.289 µM) in the test on M. arginini G-230 (M. arginini G-230, Chanock agar, 37° C., 2 days, aerobic, calculated for free base); 0.39 µg/mL (≈ 1.13 µM) in the test with M. orale CH-19299 (M. orale CH-19299, Chanock agar, 37° C., 2 days, anaerobic, calculated for free base); 1.56 µg/mL (≈ 4.5 µM) in the test on M. salivarium PG-20 (M. salivarium PG-20, Chanock agar, 37° C., 2 days, anaerobic, calculated for free base). Also, the MIC with M. hyorhinis BST-7 (M. hyorhinis BST-7, Chanock agar, 37° C., 2 days, aerobic, calculated for free base) was 0.1 µg/mL (≈ 0.289 µM); with M. hominis PG-21, 0.39 µg/mL (≈ 1.13 µM); in the test on S. epidermidis No. 8 (S. epidermidis No. 8, agar dilution, 20 h, 37° C., calculated for free base), 0.025 µg/mL (≈ 0.0722 µM); in the test on S. aureus 209 JC-1 (209JC1, S. aureus 209 JC-1, agar dilution, 20 h, 37° C., calculated for free base), 0.025 µg/mL (≈ 0.0722 µM); in the test on E. coli NIHJ JC-2 it was 0.0063 µg/mL (≈ 0.0182 µM); in the test with S. aureus Terajima (S. aureus Terajima, agar dilution, 37° C., calculated for free base) it was 0.05 µg/mL (≈ 0.144 µM). Further, the MIC in the test with P. Aeruginosa 12 (P. Aeruginosa 12, agar dilution, 37° C., calculated for free base) was 0.05 µg/mL (≈ 0.144 µM); in test [1] it was 0.25 µg/mL (≈ 0.722 µM); with C. Trachomatics G/ur 931, 0.25 µg/mL (≈ 0.722 µM); in test [2] it was 0.25 µg/mL (≈ 0.722 µM); in [3] it was 0.25 µg/mL (≈ 0.722 µM); in the test with M. pneumoniae Mac it was 0.1 µg/mL (≈ 0.289 µM).
For the molecule `C[C@@H]1CN(c2cc3c(c(N)c2F)c(=O)c(C(=O)O)cn3C2CC2)C[C@H](C)N1` [Compound 2, 5-amino-1-cyclopropyl-6-fluoro-7-(cis-3,5-dimethyl-1-piperazinyl)-1,4-dihydro-4-oxoquinoline-3-carboxylic acid], the MIC was 0.025 µg/mL (≈ 0.0668 µM) in the test with M. fermentans PG-18; 0.05 µg/mL (≈ 0.134 µM) with M. buccale CH-20249; 0.05 µg/mL (≈ 0.134 µM) with A. laidlawii PG-8; 0.05 µg/mL (≈ 0.134 µM) in the test with M. arginini G-230; 0.39 µg/mL (≈ 1.04 µM) with M. orale CH-19299; 0.39 µg/mL (≈ 1.04 µM) in the test with M. salivarium PG-20. Besides, the MIC is 0.05 µg/mL (≈ 0.134 µM) in the test on M. hyorhinis BST-7; 0.1 µg/mL (≈ 0.267 µM) in the test on M. hominis PG-21; 0.1 µg/mL (≈ 0.267 µM) in the test with S. epidermidis No. 8 (NO.8, 20 h); 0.1 µg/mL (≈ 0.267 µM) with S. aureus 209 JC-1 (209JC1, 20 h); 0.025 µg/mL (≈ 0.0668 µM) in the test with E. coli NIHJ JC-2; 0.05 µg/mL (≈ 0.134 µM) in the test with S. aureus Terajima. The MIC is 0.39 µg/mL (≈ 1.04 µM) with P. Aeruginosa 12; 0.063 µg/mL (≈ 0.168 µM) in [1]; 0.063 µg/mL (≈ 0.168 µM) in the test with C. Trachomatics G/ur 931; 0.063 µg/mL (≈ 0.168 µM) in [2]; 0.063 µg/mL (≈ 0.168 µM) in [3]; 0.1 µg/mL (≈ 0.267 µM) with M. pneumoniae Mac.
